In paper PMC10999543, “Identification of kinase modulators as host-directed therapeutics against intracellular methicillin-resistant Staphylococcus aureus” (Frontiers in Cellular and Infection Microbiology, 2024):
Read-outs that look alike come from different tables or passages of the source.

Legend:
intracellular MRSA = format: cell-based, Staphylococcus aureus; settings: for %GFP+ rep 1 / z-scoreMRSA+ rep 1: replicate 1; for %GFP+ rep 2 / z-scoreMRSA+ rep 2: replicate 2; for %GFP+ rep 3 / z-scoreMRSA+ rep 3: replicate 3; for z-scoreMRSA+ mean: mean of 3 replicates
Outline: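 HeLa, MRSA-GFP at MOI ~6.8, 1 h infection; gentamicin 30 µg/ml for 15 min; inhibitor plus gentamicin 5 µg/ml overnight, 37°C/5% CO2; triplicate plates; FACS %GFP+ and cell count; hit = z ≤ -2 MRSA+, z ≥ -3 count.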

HeLa cells = experiment: Compound screen by flow cytometry: HeLa cell count as surrogate readout of cell viability (z-scoreHeLa); format: cell-based, human; settings: for cell count rep 1 / z-scoreHeLa rep 1: replicate 1; for cell count rep 2 / z-scoreHeLa rep 2: replicate 2; for cell count rep 3 / z-scoreHeLa rep 3: replicate 3; for z-scoreHeLa mean: mean of 3 replicates
Outline: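 HeLa cells were infected with GFP-MRSA (mean MOI 6.8 ± 4.6) for 1 h, and extracellular bacteria were killed with 30 µg/ml gentamicin. Cells were then incubated overnight with kinase inhibitors in 5 µg/ml gentamicin, in triplicate against DMSO controls. Flow-cytometric cell count served as a viability surrogate, expressed as a plate z-score.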

[1] = PKIS compound screen raw data, MRSA-infected HeLa cells
[2] = PKIS compound screen, MRSA-infected HeLa cells
[3] = PKIS compound screen, Yes/No call (effect without cell death)
[4] = PKIS compound screen, Yes/No call on z-scoreMRSA+
[5] = PKIS compound screen raw data, HeLa cell count
[6] = PKIS compound screen, HeLa cell count
[7] = PKIS compound screen, Yes/No call on z-scoreHeLa
[8] = Yes/No: effect without cell death
[9] = compound screen, MRSA-infected HeLa cells
[10] = compound screen, HeLa cell count
[11] = PKIS compound screen, Yes/No call
[12] = PKIS compounds raw data, MRSA-infected HeLa cells
[13] = PKIS compounds raw data, HeLa cell count

| SMILES | %GFP+ rep 1 (intracellular MRSA; [1]) [%] | %GFP+ rep 2 (intracellular MRSA; [1]) [%] | %GFP+ rep 3 (intracellular MRSA; [1]) [%] | hit (intracellular MRSA; [3]) | cell count rep 1 (HeLa cells; [5]) | cell count rep 2 (HeLa cells; [5]) | cell count rep 3 (HeLa cells; [5]) | effect (intracellular MRSA; Yes/No call from z-scoreMRSA+) | hit (intracellular MRSA; [8]) | z-scoreMRSA+ mean (intracellular MRSA; [9]) | z-scoreMRSA+ rep 1 (intracellular MRSA; [9]) | z-scoreMRSA+ rep 2 (intracellular MRSA; [9]) | z-scoreMRSA+ rep 3 (intracellular MRSA; [9]) | cell death (HeLa cells; Yes/No call from z-scoreHeLa) | z-scoreHeLa mean (HeLa cells; [10]) | z-scoreHeLa rep 1 (HeLa cells; [10]) | z-scoreHeLa rep 2 (HeLa cells; [10]) | z-scoreHeLa rep 3 (HeLa cells; [10]) | other results |
| --- | --- | --- | --- | --- | --- | --- | --- | --- | --- | --- | --- | --- | --- | --- | --- | --- | --- | --- | --- |
| COc1cc2ncn(-c3cc(OCc4ccccc4C(F)(F)F)c(C(=O)N(C)C)s3)c2cc1OC [GSK1030062A] | 17.3 | 19.4 | 19.3 | No | 10049 | 31389 | 32107 |  |  |  |  |  |  |  |  |  |  |  | z-scoreMRSA+ mean (intracellular MRSA; [2]): -0.02; z-scoreMRSA+ rep 1 (intracellular MRSA; [2]): -0.18; z-scoreMRSA+ rep 2 (intracellular MRSA; [2]): 0.26; z-scoreMRSA+ rep 3 (intracellular MRSA; [2]): -0.15; effect (intracellular MRSA; [4]): No; z-scoreHeLa mean (HeLa cells; [6]): -1.17; z-scoreHeLa rep 1 (HeLa cells; [6]): -1.53; z-scoreHeLa rep 2 (HeLa cells; [6]): -0.63; z-scoreHeLa rep 3 (HeLa cells; [6]): -1.34; cell death (HeLa cells; [7]): No |
| Fc1cc(Cl)ccc1Nc1ccnc2cc(-c3ccc(CN4CCCCC4)o3)ccc12 [GW560116X] | 26.5 | 26.3 | 25.6 |  | 2203 | 2204 | 1264 | No | No | 0.73 | 0.29 | 0.89 | 1.02 | No | -1.89 | -1.55 | -1.61 | -2.51 |  |
| O=C(Nc1n[nH]c2cc(-c3cccc(F)c3F)ccc12)C1CC1 [SB-733894] | 21.8 | 21.7 | 19.3 |  | 4632 | 4442 | 4898 | No | No | -0.63 | -0.81 | -0.22 | -0.87 | No | 0.0318 | 0.20 | 0.11 | -0.22 |  |
| Cn1cc(C=C2C(=O)Nc3cccnc32)c2ccccc21 [GW441756X] |  |  |  | No |  |  |  |  |  |  |  |  |  |  |  |  |  |  | effect (intracellular MRSA; [11]): No; z-scoreMRSA+ mean (intracellular MRSA; PKIS compound screen): -0.68; z-scoreMRSA+ rep 1 (intracellular MRSA; PKIS compound screen): -0.28; z-scoreMRSA+ rep 2 (intracellular MRSA; PKIS compound screen): -0.47; z-scoreMRSA+ rep 3 (intracellular MRSA; PKIS compound screen): -1.30; %GFP+ rep 1 (intracellular MRSA; [12]): 12.3%; %GFP+ rep 2 (intracellular MRSA; [12]): 12.1%; %GFP+ rep 3 (intracellular MRSA; [12]): 11.5%; cell death (HeLa cells; [11]): No; z-scoreHeLa mean (HeLa cells; PKIS compound screen): 0.63; z-scoreHeLa rep 1 (HeLa cells; PKIS compound screen): 0.06; z-scoreHeLa rep 2 (HeLa cells; PKIS compound screen): 0.32; z-scoreHeLa rep 3 (HeLa cells; PKIS compound screen): 1.49; cell count rep 1 (HeLa cells; [13]): 4844; cell count rep 2 (HeLa cells; [13]): 4695; cell count rep 3 (HeLa cells; [13]): 10080 |
| CCn1c(-c2nonc2N)nc2c(C#CC(C)(C)O)nc(OC[C@H](N)c3ccccc3)cc21 [GSK943949A] | 19.2 | 16.3 | 15.7 |  | 779 | 847 | 431 | No | No | -1.63 | -1.42 | -1.53 | -1.95 | No | -2.76 | -2.58 | -2.66 | -3.04 |  |
| COc1cccc(C2=C(Nc3ccc(Cl)c(C(=O)O)c3)C(=O)NC2=O)c1 [SB-390769] |  |  |  | No |  |  |  |  |  |  |  |  |  |  |  |  |  |  | effect (intracellular MRSA; [11]): No; z-scoreMRSA+ mean (intracellular MRSA; PKIS compound screen): 0.47; z-scoreMRSA+ rep 1 (intracellular MRSA; PKIS compound screen): -0.05; z-scoreMRSA+ rep 2 (intracellular MRSA; PKIS compound screen): 0.72; z-scoreMRSA+ rep 3 (intracellular MRSA; PKIS compound screen): 0.73; %GFP+ rep 1 (intracellular MRSA; [12]): 26.8%; %GFP+ rep 2 (intracellular MRSA; [12]): 29.8%; %GFP+ rep 3 (intracellular MRSA; [12]): 31.2%; cell death (HeLa cells; [11]): No; z-scoreHeLa mean (HeLa cells; PKIS compound screen): 1.73; z-scoreHeLa rep 1 (HeLa cells; PKIS compound screen): 0.80; z-scoreHeLa rep 2 (HeLa cells; PKIS compound screen): 1.87; z-scoreHeLa rep 3 (HeLa cells; PKIS compound screen): 2.53; cell count rep 1 (HeLa cells; [13]): 7373; cell count rep 2 (HeLa cells; [13]): 8825; cell count rep 3 (HeLa cells; [13]): 9583 |
| COC(=O)Nc1nc2ccc(Oc3ccc(NC(=O)Nc4cc(C(F)(F)F)ccc4F)cn3)cc2[nH]1 [GW681170A] | 25.2 | 20.8 | 21.7 |  | 5819 | 4937 | 6470 | No | No | -0.20 | -0.0173 | -0.44 | -0.15 | No | 0.78 | 1.06 | 0.49 | 0.78 |  |
| Cc1cccc(-c2nc(Nc3ccncc3)c3ccccc3n2)n1 [GW855857X] | 26.0 | 24.5 | 21.6 |  | 3133 | 3003 | 4517 | No | No | 0.15 | 0.17 | 0.46 | -0.18 | No | -0.78 | -0.88 | -1.00 | -0.46 |  |
| COc1cc2c(Nc3cccc(NC(=O)c4ccccc4)c3)ncnc2cc1OCCCN1CCOCC1 [GSK223810A] | 19.8 | 21.2 | 22.6 | No | 28720 | 24881 | 20680 |  |  |  |  |  |  |  |  |  |  |  | z-scoreMRSA+ mean (intracellular MRSA; [2]): 0.38; z-scoreMRSA+ rep 1 (intracellular MRSA; [2]): 0.27; z-scoreMRSA+ rep 2 (intracellular MRSA; [2]): 0.49; z-scoreMRSA+ rep 3 (intracellular MRSA; [2]): 0.37; effect (intracellular MRSA; [4]): No; z-scoreHeLa mean (HeLa cells; [6]): 0.00813; z-scoreHeLa rep 1 (HeLa cells; [6]): -0.25; z-scoreHeLa rep 2 (HeLa cells; [6]): -0.07; z-scoreHeLa rep 3 (HeLa cells; [6]): 0.34; cell death (HeLa cells; [7]): No |
